Values joined by “and” are separate entries in the source; they are usually repeats but may differ in a detail not shown here. Equal entries are not always repeated.
Key:
HEK293T cells [1] = assay: Cytotoxicity: necrosis induction (red fluorescent dye for permeable plasma membranes); type: cell-based; settings: 1 µM, 24 h, necrotic cell count normalized to 0.1% DMSO, single replicates;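 also: compounds applied in DMEM high glucose with 0.1% FCS and 0.1% DMSO, necrotic HEK293T cells counted by red staining of cells whose plasma membranes had become permeable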
HEK293T cells [2] = assay: Cytotoxicity: metabolic activity (WST-8 / CCK-8 assay); settings: 1 µM; HEK293T, 24 h; WST-8; normalized to 0.1% DMSO; single replicates
HEK293T cells [3] = assay: Cytotoxicity: apoptosis induction (caspase-3/7 DEVD fluorogenic DNA dye); settings: 1 µM; HEK293T, 24 h; apoptotic cell count normalized to 0.1% DMSO; single replicates
[4] = system: ATF6 activity in Hela ATF6 reporter cells; assay: Endoplasmic reticulum stress assay (ATF6 Renilla luciferase reporter, tunicamycin); type: cell-based; settings: for activity at 1 µM: Homo sapiens, HeLa, single replicates n=1 to n=5, read-out: ER stress [rel. ATF6 activity]
Protocol: After 24 h, cells were incubated with the test compounds solubilized with 0.1% DMSO in the same medium without puromycin. After 4 h incubation, tunicamycin (100 ng/mL) was added. After another 18 h incubation, cells were assayed for renilla luminescence using DualGlo reagent (Promega) on a Tecan SPARK Cyto (Tecan). Test samples were normalized to the 0.1% DMSO control. Each sample was repeated in five biologically independent experiments.

HEK293T cells [5] = assay: Cytotoxicity: growth-rate (change in confluence over 24 h); settings: 1 µM, normalized to 0.1% DMSO control, single replicates (n=1...)
[6] = system: NF-κB activity in HEK293 NF-κB reporter cells; assay: NF-kB activity assay (GFP reporter, ionomycin/PMA); type: cell-based; settings: for Mean NFκB response: n=3
Protocol: Fig. 6 Application of the NR3 CG set.
After 24 h, cells were incubated with the test compounds solubilized with 0.1% DMSO in the same medium without puromycin. After 4 h incubation, ionomycin (100 ng/mL) and phorbol-12-myristat-13-acetate (PMA, 10 ng/mL) was added, and the cells were imaged for confluence and GFP expression every 90 min. over 24 h using a Tecan SPARK Cyto (Tecan). The number of GFP expressing cells was normalized to confluence in each sample. Each sample was repeated in three biologically independent experiments.

TRIM24 = target: T1, TRIM24 (Homo sapiens, UniProt O15164); assay: Liability panel screening by DSF: TRIM24; type: binding; settings: DSF, 20 µM, n=2; read-out: Mean ΔTM TRIM24
T1 construct: This panel comprised ten highly ligandable kinases and bromodomains; made in house
T1 sequence (O15164 899-1004 limits assumed): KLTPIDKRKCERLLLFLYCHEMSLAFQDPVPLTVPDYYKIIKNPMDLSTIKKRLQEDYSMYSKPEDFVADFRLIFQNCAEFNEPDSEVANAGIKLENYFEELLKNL
Protocol: (§1) Reference ligands are listed in the methods section.
(§2) In-house produced recombinantly expressed proteins[62] of the liability panel targets were diluted in a buffer containing 10 mM HEPES (pH 7.5) and 500 mM NaCl to a concentration of 2 µM. SYPRO Orange (Invitrogen, Carlsbad, California, USA; #S6650) as a fluorescence probe was added at a 1:1000 dilution to the proteins. […] Temperature-dependent unfolding profiles were measured on a QuantStudio™ 5 real-time PCR machine (Thermo Fisher Scientific, Waltham, Massachusetts, USA; #A28140). […] The temperature was increased 3 °C per minute to a maximum temperature of 85 °C. Experiments were run as technical duplicates. […] Data were analyzed with the internal Thermal Shift Software (version 1.4, Thermo Fisher Scientific) using the Boltzmann equitation to determine the inflection point of the transition curve. Differences in melting temperature are given as ∆Tm in K. […]
(§3) scanning fluorimetry (DSF).
(§4) a concentration of 20 µM.

ABL1 = target: T2, ABL1 (Homo sapiens, UniProt P00519); assay: Liability panel screening by DSF: ABL1; type: binding; settings: DSF, 20 µM, n=2; read-out: Mean ΔTM ABL1
T2 construct: made in house
T2 sequence (P00519 whole entry, species assumed): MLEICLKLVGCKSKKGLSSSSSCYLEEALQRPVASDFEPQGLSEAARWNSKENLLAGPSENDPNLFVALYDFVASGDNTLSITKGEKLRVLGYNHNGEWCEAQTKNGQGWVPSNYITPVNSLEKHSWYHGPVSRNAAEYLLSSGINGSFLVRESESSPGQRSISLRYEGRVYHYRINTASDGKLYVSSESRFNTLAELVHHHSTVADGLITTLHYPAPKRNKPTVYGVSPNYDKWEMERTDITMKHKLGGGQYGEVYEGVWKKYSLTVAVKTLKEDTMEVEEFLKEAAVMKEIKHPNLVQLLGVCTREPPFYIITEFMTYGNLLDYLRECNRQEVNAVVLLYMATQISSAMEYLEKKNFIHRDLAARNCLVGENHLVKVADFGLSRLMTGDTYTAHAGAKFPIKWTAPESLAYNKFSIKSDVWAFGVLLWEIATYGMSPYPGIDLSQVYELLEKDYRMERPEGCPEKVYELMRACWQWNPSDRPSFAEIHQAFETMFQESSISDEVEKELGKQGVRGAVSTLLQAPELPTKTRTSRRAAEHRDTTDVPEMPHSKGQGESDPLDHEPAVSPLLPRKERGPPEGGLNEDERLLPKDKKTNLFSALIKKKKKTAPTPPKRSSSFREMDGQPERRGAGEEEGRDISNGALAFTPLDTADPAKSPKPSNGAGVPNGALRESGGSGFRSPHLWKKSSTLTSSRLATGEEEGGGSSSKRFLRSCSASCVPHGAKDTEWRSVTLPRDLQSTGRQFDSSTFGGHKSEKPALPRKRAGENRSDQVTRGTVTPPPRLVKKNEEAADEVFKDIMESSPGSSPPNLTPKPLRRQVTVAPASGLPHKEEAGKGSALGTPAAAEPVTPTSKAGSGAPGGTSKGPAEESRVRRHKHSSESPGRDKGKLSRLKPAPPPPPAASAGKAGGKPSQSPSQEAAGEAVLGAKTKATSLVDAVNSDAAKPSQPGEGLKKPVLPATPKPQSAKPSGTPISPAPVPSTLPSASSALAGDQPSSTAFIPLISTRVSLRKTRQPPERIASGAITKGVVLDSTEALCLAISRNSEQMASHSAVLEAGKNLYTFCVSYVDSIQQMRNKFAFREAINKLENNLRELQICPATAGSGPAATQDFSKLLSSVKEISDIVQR
Protocol: as §1, §2, §3, §4

AURKA = target: T3, AURKA (Homo sapiens, UniProt O14965); assay: Liability panel screening by DSF: AURKA; type: binding; settings: DSF, 20 µM, n=2; read-out: Mean ΔTM AURKA
T3 construct: made in house
T3 sequence (O14965 1-403): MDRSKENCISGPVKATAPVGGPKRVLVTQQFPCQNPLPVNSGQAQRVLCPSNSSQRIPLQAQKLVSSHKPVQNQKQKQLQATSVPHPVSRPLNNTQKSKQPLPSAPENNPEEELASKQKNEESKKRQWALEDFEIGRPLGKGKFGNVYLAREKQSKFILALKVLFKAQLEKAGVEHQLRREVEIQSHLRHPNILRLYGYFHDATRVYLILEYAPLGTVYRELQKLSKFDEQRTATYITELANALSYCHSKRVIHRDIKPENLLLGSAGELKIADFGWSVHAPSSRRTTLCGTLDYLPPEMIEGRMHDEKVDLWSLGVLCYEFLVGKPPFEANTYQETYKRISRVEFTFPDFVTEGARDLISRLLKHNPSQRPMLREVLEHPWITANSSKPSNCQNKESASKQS
Protocol: as §1, §2, §3, §4

CSNK1D = target: T4, CSNK1D (Homo sapiens, UniProt P48730); assay: Liability panel screening by DSF: CSNK1D; type: binding; settings: DSF, 20 µM, n=2; read-out: Mean ΔTM CSNK1D
T4 construct: made in house
T4 sequence (P48730 whole entry, species assumed): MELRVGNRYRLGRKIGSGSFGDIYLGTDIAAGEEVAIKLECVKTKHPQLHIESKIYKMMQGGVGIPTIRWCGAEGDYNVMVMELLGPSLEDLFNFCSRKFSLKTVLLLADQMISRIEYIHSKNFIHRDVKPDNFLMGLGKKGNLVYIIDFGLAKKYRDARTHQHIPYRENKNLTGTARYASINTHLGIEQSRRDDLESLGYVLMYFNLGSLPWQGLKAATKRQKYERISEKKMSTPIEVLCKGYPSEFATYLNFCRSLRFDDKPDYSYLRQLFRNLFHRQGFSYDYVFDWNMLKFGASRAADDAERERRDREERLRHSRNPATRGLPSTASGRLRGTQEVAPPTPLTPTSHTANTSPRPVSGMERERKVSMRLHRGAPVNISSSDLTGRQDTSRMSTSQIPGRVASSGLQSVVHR
Protocol: as §1, §2, §3, §4

MAPK1 = target: T5, MAPK1 (Homo sapiens, UniProt P28482); assay: Liability panel screening by DSF: MAPK1; type: binding; settings: DSF, 20 µM, n=2; read-out: Mean ΔTM MAPK1
T5 construct: made in house
T5 sequence (P28482 whole entry, species assumed): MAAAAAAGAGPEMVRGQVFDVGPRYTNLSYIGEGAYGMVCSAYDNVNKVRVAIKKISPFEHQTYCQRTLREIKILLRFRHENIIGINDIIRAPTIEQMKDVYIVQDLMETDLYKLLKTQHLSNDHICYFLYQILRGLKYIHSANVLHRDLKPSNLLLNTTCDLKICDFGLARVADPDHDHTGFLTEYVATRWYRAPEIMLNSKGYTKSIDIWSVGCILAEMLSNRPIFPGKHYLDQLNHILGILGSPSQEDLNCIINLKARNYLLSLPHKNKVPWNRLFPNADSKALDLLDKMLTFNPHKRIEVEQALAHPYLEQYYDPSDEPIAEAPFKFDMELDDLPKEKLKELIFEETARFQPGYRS
Protocol: as §1, §2, §3, §4

BRPF1 = target: T6, BRPF1 (Homo sapiens, UniProt P55201); assay: Liability panel screening by DSF: BRPF1; type: binding; settings: DSF, 20 µM, n=2; read-out: Mean ΔTM BRPF1
T6 construct: This panel comprised ten highly ligandable kinases and bromodomains; made in house
T6 sequence (P55201 628-732 limits assumed): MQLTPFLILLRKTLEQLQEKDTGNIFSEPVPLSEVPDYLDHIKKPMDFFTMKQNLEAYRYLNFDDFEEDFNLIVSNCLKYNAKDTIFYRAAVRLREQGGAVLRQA
Protocol: as §1, §2, §3, §4

CDK2 = target: T7, CDK2 (Homo sapiens, UniProt P24941); assay: Liability panel screening by DSF: CDK2; type: binding; settings: DSF, 20 µM, n=2; read-out: Mean ΔTM CDK2
T7 construct: made in house
Protocol: as §1, §2, §3, §4

GSK3B = target: T8, GSK3B (Homo sapiens, UniProt P49841); assay: Liability panel screening by DSF: GSK3B; type: binding; settings: DSF, 20 µM, n=2; read-out: Mean ΔTM GSK3B
T8 construct: made in house
T8 sequence (P49841 whole entry, species assumed): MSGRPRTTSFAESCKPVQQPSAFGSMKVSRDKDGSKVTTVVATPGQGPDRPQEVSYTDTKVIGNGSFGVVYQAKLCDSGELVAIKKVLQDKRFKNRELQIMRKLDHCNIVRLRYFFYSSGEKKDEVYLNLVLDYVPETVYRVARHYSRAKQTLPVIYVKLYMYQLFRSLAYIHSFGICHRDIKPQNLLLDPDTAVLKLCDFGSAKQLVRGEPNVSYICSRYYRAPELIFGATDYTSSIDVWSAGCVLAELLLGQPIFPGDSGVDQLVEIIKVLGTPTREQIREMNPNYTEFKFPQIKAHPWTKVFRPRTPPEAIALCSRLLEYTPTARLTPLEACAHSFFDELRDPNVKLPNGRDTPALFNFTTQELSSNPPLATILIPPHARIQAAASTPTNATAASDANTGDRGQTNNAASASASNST

FGFR3 = target: T9, FGFR3 (Homo sapiens, UniProt P22607); assay: Liability panel screening by DSF: FGFR3; type: binding; settings: DSF, 20 µM, n=2; read-out: Mean ΔTM FGFR3
T9 construct: made in house
T9 sequence (P22607 23-806, species assumed): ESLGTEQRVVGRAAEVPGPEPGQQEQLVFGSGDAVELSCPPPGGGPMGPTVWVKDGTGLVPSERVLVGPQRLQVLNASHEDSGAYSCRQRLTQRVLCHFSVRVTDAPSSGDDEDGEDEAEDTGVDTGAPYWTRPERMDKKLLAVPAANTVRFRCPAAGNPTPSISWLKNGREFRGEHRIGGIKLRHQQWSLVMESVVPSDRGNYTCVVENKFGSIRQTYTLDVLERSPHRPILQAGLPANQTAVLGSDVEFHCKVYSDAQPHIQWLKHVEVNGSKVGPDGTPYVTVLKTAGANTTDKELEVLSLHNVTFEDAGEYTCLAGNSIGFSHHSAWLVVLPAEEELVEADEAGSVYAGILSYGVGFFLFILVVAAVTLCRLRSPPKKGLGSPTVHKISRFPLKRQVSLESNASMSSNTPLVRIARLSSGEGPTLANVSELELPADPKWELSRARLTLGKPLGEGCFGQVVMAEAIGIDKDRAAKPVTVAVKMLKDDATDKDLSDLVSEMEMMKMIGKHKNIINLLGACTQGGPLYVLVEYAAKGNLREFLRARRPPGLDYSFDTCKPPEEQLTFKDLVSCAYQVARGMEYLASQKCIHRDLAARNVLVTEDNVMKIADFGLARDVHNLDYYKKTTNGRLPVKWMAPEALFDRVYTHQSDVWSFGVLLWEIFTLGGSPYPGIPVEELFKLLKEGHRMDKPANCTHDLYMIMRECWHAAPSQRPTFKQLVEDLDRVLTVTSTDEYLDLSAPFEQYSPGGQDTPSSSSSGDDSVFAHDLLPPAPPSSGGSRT
Protocol: as §1, §2, §3, §4

BRD4 = target: T10, BRD4 (Homo sapiens, UniProt O60885); assay: Liability panel screening by DSF: BRD4; type: binding; settings: DSF, 20 µM, n=2; read-out: Mean ΔTM BRD4
T10 construct: This panel comprised ten highly ligandable kinases and bromodomains; made in house
Protocol: as §1, §2, §3, §4

Structure (SMILES) | Necrosis induction [NI] (HEK293T cells [1]) | Metabolic activity [MA] (HEK293T cells [2]) | Apoptosis induction [AI] (HEK293T cells [3]) | activity at 1 µM [4] | Mean NFκB response ([6]; 1 µM, 1,5 h) | Mean NFκB response ([6]; 1 µM, 4,5 h) | Mean NFκB response ([6]; 1 µM, 7,5 h) | Mean NFκB response ([6]; 1 µM, 10,5 h) | Mean NFκB response ([6]; 1 µM, 13,5 h) | Mean NFκB response ([6]; 1 µM, 16,6 h) | Mean NFκB response ([6]; 1 µM, 19,5 h) | Mean NFκB response ([6]; 1 µM, 22,5 h) | Mean NFκB response ([6]; 1 µM, 3 h) | Mean NFκB response ([6]; 1 µM, 6 h) | Mean NFκB response ([6]; 1 µM, 9 h) | Mean NFκB response ([6]; 1 µM, 12 h) | Mean NFκB response ([6]; 1 µM, 15 h) | Mean NFκB response ([6]; 1 µM, 18 h) | Mean NFκB response ([6]; 1 µM, 21 h) | Mean NFκB response ([6]; 1 µM, 24 h) | also measured
CNC(=O)c1ccc(N2C(=S)N(c3ccc(C#N)c(C(F)(F)F)c3)C(=O)C2(C)C)cc1F [Enzalutamide] | 0.88 and 0.97 and 0.94 and 0.81 | 1.02 and 1.04 and 1.01 (2×) and 0.98 and 1.13 | 0.86 and 1.10 and 1.13 and 0.75 and 1.01 and 0.84 | 99% and 117% | 4053.16 GFP+-cells/confluence ∙ 1000 | 4748.63 GFP+-cells/confluence ∙ 1000 | 9147.14 GFP+-cells/confluence ∙ 1000 | 19308.05 GFP+-cells/confluence ∙ 1000 | 27440.00 GFP+-cells/confluence ∙ 1000 | 33976.67 GFP+-cells/confluence ∙ 1000 | 37833.33 GFP+-cells/confluence ∙ 1000 | 41216.67 GFP+-cells/confluence ∙ 1000 | 4315.98 GFP+-cells/confluence ∙ 1000 | 6007.28 GFP+-cells/confluence ∙ 1000 | 14317.85 GFP+-cells/confluence ∙ 1000 | 23650.00 GFP+-cells/confluence ∙ 1000 | 31096.67 GFP+-cells/confluence ∙ 1000 | 36023.33 GFP+-cells/confluence ∙ 1000 | 39446.67 GFP+-cells/confluence ∙ 1000 | 42106.67 GFP+-cells/confluence ∙ 1000 | Growth rate [GR] (HEK293T cells [5]): 0.61 and 1.23 and 0.75 and 1.17 and 0.84 and 0.95 and 1.00 and 2.30 and 3.82 and 0.45; NF-κB activity (inflammatory response to ionomycin/PMA) ([6]; HEK293 NF-κB reporter cells, compounds at recommended concentrations, imaged over 24 h, n = 3): tended to enhance NF-κB activity
Oc1ccc(-c2nc3cc(O)cc(Br)c3o2)cc1 [WAY200070] | 0.70 and 0.57 and 0.78 and 0.74 | 1.01 (2×) and 0.90 and 0.92 and 0.96 and 0.97 and 1.05 and 1.00 | 0.59 and 0.50 and 0.47 and 0.71 and 1.22 and 1.35 | 92% | 2392.96 GFP+-cells/confluence ∙ 1000 | 3166.63 GFP+-cells/confluence ∙ 1000 | 7710.70 GFP+-cells/confluence ∙ 1000 | 19182.75 GFP+-cells/confluence ∙ 1000 | 27828.42 GFP+-cells/confluence ∙ 1000 | 34347.41 GFP+-cells/confluence ∙ 1000 | 38770.94 GFP+-cells/confluence ∙ 1000 | 41785.25 GFP+-cells/confluence ∙ 1000 | 2570.72 GFP+-cells/confluence ∙ 1000 | 4284.26 GFP+-cells/confluence ∙ 1000 | 13724.58 GFP+-cells/confluence ∙ 1000 | 23519.76 GFP+-cells/confluence ∙ 1000 | 31227.07 GFP+-cells/confluence ∙ 1000 | 36753.27 GFP+-cells/confluence ∙ 1000 | 40136.06 GFP+-cells/confluence ∙ 1000 | 43256.26 GFP+-cells/confluence ∙ 1000 | ΔTm at 20 µM (TRIM24): 0.24 °C; ΔTm at 20 µM (ABL1): 2.05 °C; ΔTm at 20 µM (AURKA): 0.19 °C; ΔTm at 20 µM (CSNK1D): 2.57 °C; ATF6 activity (tunicamycin-induced endoplasmic reticulum stress) ([4]; Hela ATF6 reporter cells, tunicamycin 100 ng/mL, 18 h, compounds at recommended concentrations, n = 5): failed to reduce ATF6 activity; ΔTm at 20 µM (MAPK1): -0.9 °C; ΔTm at 20 µM (BRPF1): 2.12 °C; ΔTm at 20 µM (CDK2): 1.93 °C; ΔTm at 20 µM (GSK3B): 3.58 °C; Growth rate [GR] (HEK293T cells [5]): 0.70 and -0.18 and 0.97 and 1.02 and 1.09 and 1.00 and 1.07 and 0.46 and 0.96 and -0.95; ΔTm at 20 µM (FGFR3): 1.16 °C; ΔTm at 20 µM (BRD4): 0.55 °C
Cc1c(N2C(=O)C3C(O)CCN3C2=O)ccc(C#N)c1Cl (centres unmarked) [BMS564929] | 0.79 and 0.76 and 0.66 and 0.82 | 1.09 and 1.08 and 0.94 and 1.07 (2×) and 0.99 and 0.92 and 1.10 | 0.43 and 0.64 and 0.69 and 0.74 and 0.68 and 1.04 | – | 2292.65 GFP+-cells/confluence ∙ 1000 | 2993.37 GFP+-cells/confluence ∙ 1000 | 6319.46 GFP+-cells/confluence ∙ 1000 | 12250.00 GFP+-cells/confluence ∙ 1000 | 16870.00 GFP+-cells/confluence ∙ 1000 | 20913.33 GFP+-cells/confluence ∙ 1000 | 23700.00 GFP+-cells/confluence ∙ 1000 | 25766.67 GFP+-cells/confluence ∙ 1000 | 2425.99 GFP+-cells/confluence ∙ 1000 | 4160.27 GFP+-cells/confluence ∙ 1000 | 9390.00 GFP+-cells/confluence ∙ 1000 | 14670.00 GFP+-cells/confluence ∙ 1000 | 19226.67 GFP+-cells/confluence ∙ 1000 | 22263.33 GFP+-cells/confluence ∙ 1000 | 24826.67 GFP+-cells/confluence ∙ 1000 | 26713.33 GFP+-cells/confluence ∙ 1000 | ΔTm at 20 µM (TRIM24): 0.44 °C; ΔTm at 20 µM (ABL1): 0.02 °C; ΔTm at 20 µM (AURKA): -2.25 °C; ΔTm at 20 µM (CSNK1D): -0.38 °C; ΔTm at 20 µM (MAPK1): 0.12 °C; ΔTm at 20 µM (BRPF1): 0.06 °C; ΔTm at 20 µM (CDK2): 0.04 °C; ΔTm at 20 µM (GSK3B): -0.71 °C; ΔTm at 20 µM (FGFR3): -0.04 °C; ΔTm at 20 µM (BRD4): -2.89 °C
